Measurements reported in PubChem BioAssay AID1871 (NMMLSC, 2009).
Calls of active or inactive are those of the source. No rule for the calls is given here.

target: Regulator of G-protein signaling 7 (Homo sapiens) (UniProt P49802); experiment: RGS7-Galphao binding modulators, dose response, biochemical, multiplexed bead flow cytometry (AID 1871); details: bead-based flow cytometry
Sequence (P49802 whole entry, looked up): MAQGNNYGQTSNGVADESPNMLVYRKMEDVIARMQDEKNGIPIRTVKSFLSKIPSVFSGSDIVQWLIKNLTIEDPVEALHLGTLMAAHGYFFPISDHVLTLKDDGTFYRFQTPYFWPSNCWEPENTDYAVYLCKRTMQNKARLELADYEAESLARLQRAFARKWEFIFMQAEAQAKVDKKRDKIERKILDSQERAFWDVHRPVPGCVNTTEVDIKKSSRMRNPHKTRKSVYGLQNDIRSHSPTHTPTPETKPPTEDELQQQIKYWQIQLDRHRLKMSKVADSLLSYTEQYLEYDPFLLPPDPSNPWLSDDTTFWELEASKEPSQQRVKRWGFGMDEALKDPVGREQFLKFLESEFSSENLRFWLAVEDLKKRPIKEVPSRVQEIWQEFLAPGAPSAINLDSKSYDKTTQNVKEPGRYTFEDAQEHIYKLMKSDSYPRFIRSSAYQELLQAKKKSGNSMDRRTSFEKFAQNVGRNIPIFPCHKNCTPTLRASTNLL

O=c1[nH]c(=S)n(Cc2ccco2)c(O)c1C=NCc1cccs1 was tested, and the EC50 was > 30 µM (inactive).
For O=C1CCCC2=C1C(c1cccs1)n1ncnc1N2 (stereo not drawn), the EC50 was > 30 µM (inactive).
With CC(C)Sc1nc2ccc(N3C(=O)C4CCCCC4C3=O)cc2s1 (stereo not drawn) the EC50 was > 30 µM (inactive).
In the case of CCOC(=O)N=Nc1c(O)n(C)c2ccccc12, the EC50 is reported as > 30 µM (inactive).
In the case of CCOC(=O)C1=C(C)NC(C)=C(C(=O)OCCNC(=O)c2cccnc2)C1c1cccc([N+](=O)[O-])c1 (stereo not drawn), the EC50 is reported as > 30 µM (inactive).
COc1ccc(Br)cc1/C=N/Nc1cccc(C(=O)O)c1 was tested, and the EC50 was > 30 µM (inactive).
For CCOC(=O)/C(C(=O)Nc1ccccc1Cl)=C1/NC(C)(C)Cc2ccccc21, the EC50 was > 30 µM (inactive).

In order of rising EC50:
1. NS(=O)(=O)c1ccc(N/N=C/c2ccc(O)c(O)c2O)c([N+](=O)[O-])c1  1.95 µM
2. CN(C)[C@@H]1C(=O)C(C(=O)NCN2CCCC2)=C(O)[C@@]2(O)C(=O)C3=C(O)c4c(O)cccc4[C@@](C)(O)C3CC12 (stereo partly drawn)  4.35 µM

same assay, conditions: bead-based flow cytometry, measured here: Ki for RGS7-Galphao

In order of rising Ki:
1. CN1CCN(C2=C(Cl)C(=O)C(c3cnc(N4CCCCC4)s3)=C(Cl)C2=O)CC1  0.15 µM
2. O=C(OCC1O[C@@H](OC(=O)c2cc(O)c(O)c(O)c2)[C@@H](OC(=O)c2cc(O)c(O)c(O)c2)[C@@H](OC(=O)c2cc(O)c(O)c(O)c2)[C@@H]1OC(=O)c1cc(O)c(O)c(O)c1)c1cc(O)c(O)c(O)c1 (stereo partly drawn)  0.37 µM
3. O=C(O)C[C@@H]1C(=O)O[C@@H]2C(COC(=O)c3cc(O)c(O)c(O)c3)O[C@@H](OC(=O)c3cc(O)c(O)c(O)c3)[C@@H](OC(=O)c3cc(O)c(O)c4c3[C@H]1[C@H](O)C(=O)O4)[C@H]2OC(=O)c1cc(O)c(O)c(O)c1 (stereo partly drawn)  0.51 µM
4. O=c1c2ccccc2sn1-c1ccc(S(=O)(=O)N2CCCC2)cc1  0.53 µM
5. O=C1C(Cl)=C(N2CCCCC2)C(=O)C(Cl)=C1c1cnc(N2CCCCC2)s1  0.71 µM
6. O=C(O[C@@H]1OC2COC(=O)c3cc(O)c(O)c(O)c3-c3c(cc(O)c(O)c3O)C(=O)O[C@@H]([C@H]1O)[C@@H]2O)c1cc(O)c(O)c(O)c1  0.98 µM
7. CC(=O)N(O)CCCCCNC(=O)CCC(=O)N(O)CCCCCNC(=O)CCC(=O)N(O)CCCCCN  1.05 µM
8. CN(C)c1ncc(C2=C(Cl)C(=O)C(N3CCCC3)=C(Cl)C2=O)s1  1.15 µM
9. COCCCNC(=O)c1ccc2c3c(onc13)-c1ccccc1C2=O  1.48 µM
10. NS(=O)(=O)c1ccc(N/N=C/c2ccc(O)c(O)c2O)c([N+](=O)[O-])c1  1.66 µM
11. O=C1OCC2OC(O)C(O)C(O)C2OC(=O)c2cc(O)c(O)c(O)c2-c2c(O)c(O)c3oc(=O)c4c(c(O)c(O)c5oc(=O)c2c3c54)-c2c1cc(O)c(O)c2O (stereo not drawn)  1.75 µM
12. O=C(COc1ccccc1C(=O)N/N=C\c1ccc(O)c(O)c1)N/N=C/c1ccc(O)c(O)c1  1.94 µM
13. O=C1CCC(=O)N(O)CCCCCNC(=O)CCC(=O)N(O)CCCCCNC(=O)CCC(=O)N(O)CCCCCN1  2.01 µM
14. Nc1c(C(=O)NCC2CCCO2)sc2nc3c(c(-c4ccco4)c12)CC/C3=C\c1ccco1 (stereo not drawn)  3.12 µM
15. CCN(CC)S(=O)(=O)c1cccc(C(=O)N/N=C/c2ccc(O)c(O)c2O)c1  3.3 µM
16. CCC(=O)NC1=C(Cl)C(=O)C(NC(=O)CC)=C(Cl)C1=O  3.33 µM
17. COc1ccc(OC)c(CCNC(=O)Cn2sc3nc(C)cc(C)c3c2=O)c1  3.45 µM
18. CN(C)[C@@H]1C(=O)C(C(=O)NCN2CCCC2)=C(O)[C@@]2(O)C(=O)C3=C(O)c4c(O)cccc4[C@@](C)(O)C3CC12 (stereo partly drawn)  3.7 µM
19. O=[N+]([O-])c1ccc(Sc2cccc[n+]2[O-])c2nonc12  4.06 µM
20. CCCNC(=O)Cn1sc2nc(C)cc(C)c2c1=O  4.08 µM
21. CC1(C)OC(=O)C(=Cc2ccc(-c3ccc(S(N)(=O)=O)cc3)o2)C(=O)O1  4.87 µM
22. CCOc1ccccc1-c1c2cc(O)c(=O)cc-2oc2cc(O)c(O)cc12  6.17 µM
23. O=C(Cc1csc(N2CCOCC2)n1)N/N=C/c1ccc(O)c(O)c1O  7.67 µM
24. COc1ccc(C2=CC(=O)C=CC2=O)cc1  8.17 µM
25. CN=c1scc(C)n1/N=C/c1ccc(O)c(O)c1O  8.75 µM
26. CCC(=O)NC(c1ccc(C)cc1)c1cc([N+](=O)[O-])c2cccnc2c1O (stereo not drawn)  11.4 µM
27. CCN=c1scc(C)n1/N=C/c1ccc(O)c(O)c1O  11.9 µM
28. C/C(=N/NC(=O)c1cc(O)c(O)c(O)c1)c1ccc([N+](=O)[O-])cc1  18.1 µM
29. CCNc1ccc2noc3c2c1C(=O)c1ccccc1-3  22.2 µM
